Assay results from patent publication US20250282771A1, “TETRAHYDROISOQUINOLINE HETEROBIFUNCTIONAL BCL-XL DEGRADERS” (Treeline Biosciences, Inc., priority 2022, published 2025).

Target: T1, N-terminal HiBiT tagged BCL-XL (Homo sapiens, UniProt Q07817)
T1 construct: expressed in transfected cells; host or cells: HT-1080 (ATCC CCL-121) cells stably transduced with lentivirus pLV-UBC-N-HiBiT-BCL-XL-PGK-puro
Test: HiBiT based degradation assay
Format: cell-based
Conditions: HT1080 cells expressing N-terminal HiBiT tagged BCL-XL, BCL-XL level normalized with DMSO control
Description: Human BCL-XL protein coding open reading frame fused with N-terminal HiBiT coding sequence was synthesized from Integrated DNA Technologies (IDT). Next, N-HiBiT-BCL-XL sequence was cloned into pLV-UBC-PGK-Puro, a lentivirus plasmid purchased from Vectorbuilder, to generate pLV-UBC-N-HiBiT-BCL-XL-PGK-puro. Lentiviral particles were generated from Lenti-X™ 293T cells (Clontech) by co-transfection of pLV-UBC-N-HiBiT-BCL-XL-PGK-puro plasmids and lentiviral packaging plasmid mix (Cellecta). HT-1080 [HT1080](ATCC CCL-121) cells were infected with the lentivirus, and HT1080 cells stably integrated with the lentiviral vectors were established by incubation with […] puromycin (Thermofisher).
HT1080 cells expressing N-terminal HiBiT tagged BCL-XL were dispensed into a 384-well plate pre-spotted with compounds at varying concentrations. Three thousand cells were seeded into each well in 40 μL of RPMI 1640 media. […] After incubation, luminescence was read on a PHERAstar FSX Plate Reader (BMG). BCL-XL degradation at each indicated concentration was normalized with the DMSO control. The BCL-XL degradation curves were plotted using a four-parameter logistic model. For compounds displaying hook effects, the curve fitting was performed using the bottom point of the hook curves (i.e., the point of Ymin) as the bottom plateau to calculate EC50.

T1 sequence (Q07817 whole entry): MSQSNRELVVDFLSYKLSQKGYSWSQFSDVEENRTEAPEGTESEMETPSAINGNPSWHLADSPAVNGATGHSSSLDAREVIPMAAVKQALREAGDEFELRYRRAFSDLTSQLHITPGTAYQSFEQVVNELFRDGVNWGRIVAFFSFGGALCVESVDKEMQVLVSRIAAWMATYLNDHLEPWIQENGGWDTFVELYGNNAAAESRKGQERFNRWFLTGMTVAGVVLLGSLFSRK

SMILES | Ymin (24 h) | Ymin (6 h)
Cc1c(OCCC[C@@H]2CCN(CC(=O)N3CCN(c4cc5c(cc4F)C(=O)N(C4CCC(=O)NC4=O)C5=O)CC3)C2)cccc1-c1ccc(N2CCc3cccc(C(=O)Nc4nc5ccccc5s4)c3C2)nc1C(=O)O (stereo partly drawn) [Compound 122b, 6-[8-(1,3-benzothiazol-2-ylcarbamoyl)-3,4-dihydro-1H-isoquinolin-2-yl]-3-[3-[3-[(3R)-1-[2-[4-[2-(2,6-dioxo-3-piperidyl)-6-fluoro-1,3-dioxo-isoindolin-5-yl]piperazin-1-yl]-2-oxo-ethyl]pyrrolidin-3-yl]propoxy]-2-methyl-phenyl]pyridine-2-carboxylic acid] | B (50% ≤ Ymin < 70%) | 
Cc1c(OCCCCCCCN2CCN(c3cc4c(cc3F)C(=O)N(C3CCC(=O)NC3=O)C4=O)CC2)cccc1-c1ccc(N2CCc3cccc(C(=O)Nc4nc5ccccc5s4)c3C2)nc1C(=O)NO (stereo not shown) [Compound 137, N-(benzo[d]thiazol-2-yl)-2-(5-(3-((7-(4-(2-(2,6-dioxopiperidin-3-yl)-6-fluoro-1,3-dioxoisoindolin-5-yl)piperazin-1-yl)heptyl)oxy)-2-methylphenyl)-6-(hydroxycarbamoyl)pyridin-2-yl)-1,2,3,4-tetrahydroisoquinoline-8-carboxamide] | B (50% ≤ Ymin < 70%) | C (Ymin ≥ 70%)
Cc1c(Oc2ccc(CCCCN3CCN(c4cc5c(cc4F)C(=O)N(C4CCC(=O)NC4=O)C5=O)CC3)cc2)cccc1-c1ccc(N2CCc3cccc(C(=O)Nc4nc5ccccc5s4)c3C2)nc1C(=O)O (stereo not shown) [Compound 117, 6-(8-(benzo[d]thiazol-2-ylcarbamoyl)-3,4-dihydroisoquinolin-2(1H)-yl)-3-(3-(4-(4-(4-(2-(2,6-dioxopiperidin-3-yl)-6-fluoro-1,3-dioxoisoindolin-5-yl)piperazin-1-yl)butyl)phenoxy)-2-methylphenyl)picolinic acid] | B (50% ≤ Ymin < 70%) | B (50% ≤ Ymin < 70%)
Cc1c(OCCCCC2CCN(CC3CCN(c4cc5c(cc4F)C(=O)N(C4CCC(=O)NC4=O)C5=O)CC3)CC2)cccc1-c1ccc(N2CCc3cccc(C(=O)Nc4nc5ccccc5s4)c3C2)nc1C(=O)O (stereo not shown) [Compound 144, 6-[8-(1,3-benzothiazol-2-ylcarbamoyl)-3,4-dihydro-1H-isoquinolin-2-yl]-3-[3-[4-[1-[[1-[2-(2,6-dioxo-3-piperidyl)-6-fluoro-1,3-dioxo-isoindolin-5-yl]-4-piperidyl]methyl]-4-piperidyl]butoxy]-2-methyl-phenyl]pyridine-2-carboxylic acid] | A (Ymin < 50%) | 
Cc1c(OCCCCCCCCCN2CCN(c3cc4c(cc3F)C(=O)N(C3CCC(=O)NC3=O)C4=O)CC2)cccc1-c1ccc(N2CCc3cccc(C(=O)Nc4nc5ccccc5s4)c3C2)nc1C(=O)O (stereo not shown) [Compound 105] |  | A (Ymin < 50%)
Cc1c(OCCCCCCCCN2CCN(c3cc4c(cc3F)C(=O)N(C3CCC(=O)NC3=O)C4=O)CC2)cccc1-c1ccc(N2CCc3cccc(C(=O)Nc4nc5ccccc5s4)c3C2)nc1C(=O)O (stereo not shown) [Compound 108] |  | B (50% ≤ Ymin < 70%)
Cc1c(OCCC[C@@H]2CCN(CC(=O)N3CCN(c4cc5c(cc4F)C(=O)N(C4CCC(=O)NC4=O)C5=O)CC3)CC2(F)F)cccc1-c1ccc(N2CCc3cccc(C(=O)Nc4nc5ccccc5s4)c3C2)nc1C(=O)O (stereo partly drawn) [Compound 120a, 6-(8-(benzo[d]thiazol-2-ylcarbamoyl)-3,4-dihydroisoquinolin-2(1H)-yl)-3-(3-(3-((4R)-1-(2-(4-(2-(2,6-dioxopiperidin-3-yl)-6-fluoro-1,3-dioxoisoindolin-5-yl)piperazin-1-yl)-2-oxoethyl)-3,3-difluoropiperidin-4-yl)propoxy)-2-methylphenyl)picolinic acid] | B (50% ≤ Ymin < 70%) | 

Other lines, results leading:

Ymin (24 h) | Ymin (6 h) | SMILES
B (50% ≤ Ymin < 70%) |  | Cc1c(OCCC[C@H]2CCN(CC(=O)N3CCN(c4cc5c(cc4F)C(=O)N(C4CCC(=O)NC4=O)C5=O)CC3)C2)cccc1-c1ccc(N2CCc3cccc(C(=O)Nc4nc5ccccc5s4)c3C2)nc1C(=O)O (stereo partly drawn) [Compound 122a, 6-(8-(benzo[d]thiazol-2-ylcarbamoyl)-3,4-dihydroisoquinolin-2(1H)-yl)-3-(3-(3-((3S)-1-(2-(4-(2-(2,6-dioxopiperidin-3-yl)-6-fluoro-1,3-dioxoisoindolin-5-yl)piperazin-1-yl)-2-oxoethyl)pyrrolidin-3-yl)propoxy)-2-methylphenyl)picolinic acid]
B (50% ≤ Ymin < 70%) |  | Cc1c(OCCCC2CCN([C@@H](C)C(=O)N3CCN(c4cc5c(cc4F)C(=O)N(C4CCC(=O)NC4=O)C5=O)CC3)CC2)cccc1-c1ccc(N2CCc3cccc(C(=O)Nc4nc5ccccc5s4)c3C2)nc1C(=O)O (stereo partly drawn) [Compound 124a, 6-(8-(benzo[d]thiazol-2-ylcarbamoyl)-3,4-dihydroisoquinolin-2(1H)-yl)-3-(3-(3-(1-((2S)-1-(4-(2-(2,6-dioxopiperidin-3-yl)-6-fluoro-1,3-dioxoisoindolin-5-yl)piperazin-1-yl)-1-oxopropan-2-yl)piperidin-4-yl)propoxy)-2-methylphenyl)picolinic acid]
B (50% ≤ Ymin < 70%) | B (50% ≤ Ymin < 70%) | Cc1c(OCCCCC2CCN(CC(=O)N3CCN(c4cc5c(cc4F)C(=O)N(C4CCC(=O)NC4=O)C5=O)CC3)CC2)cccc1-c1ccc(N2CCc3cccc(C(=O)Nc4nc5ccccc5s4)c3C2)nc1C(=O)O (stereo not shown) [Compound 141]
